For one data set, the system named is embryonal stem cells. Put plainly: Embryonal stem cell culture: differentiation and proliferation. In kind it is cell-based. The procedure: Thus, embryonal stem cells were cultured for 3-4 days essentially as described in (66), in the presence of LIF (20-100 ng/ml) or TEPA (10-20 μM) and their differentiation compared to non-treated control cells.
Another data set concerns Hepatocytes. In words: Ex-vivo expansion of hepatocytes. Conditions: 15 μg/ml TEPA, five weeks (FIGS. 27a-d). In kind it is cell-based, BALB/c mice. The procedure:
Hepatocytes: Livers were dissected from anesthetized BALB/c mice with sterile tools and immersed into F12 culture medium (Biological Industries, Kibbutz Bet Ha'Emek, Israel). The livers were washed three times with 3% BSA/PBS buffer and minced into small pieces with seizures. Following three washes with 3% BSA/PBS the liver tissue pieces were incubated for 30 minutes with 0.05% collagenase at 37° C. with continues shaking under 5% CO2 atmosphere. The digested liver tissue pieces were than mashed by pressing through a fine mesh strainer. After three washes with 3% BSA/PBS the liver cells were seeded into F12 culture medium enriched with: 15 mM HEPES buffer, […], 10 mM sodium bicarbonate, 0.5 u/ml insulin, 7.5 ng/ml hydrocortisone and with or without 15 μg/ml of TEPA and incubated at 37° C. in a 5% CO2 atmosphere. After overnight incubation the medium was removed and the cells were supplemented with fresh enriched F12 medium as described above with or without 15 μg/ml of TEPA. Hepatocytes were incubated in 35 mm dishes for several weeks with enriched F12 culture medium with or without 15 μg/ml TEPA at 37° C. under 5% CO2 atmosphere. Cell culture medium was replaced every week with a fresh medium.

The subject of the next data set is NOD/SCID mice. In words: Engraftment of SCID mice by ex-vivo expanded human hematopoietic cells. Type of data set: in vivo. Conditions: for Engraftment Colonies: 2 weeks ex-vivo, TEPA + Cytokines. The protocol:
Engraftment of SCID mice by ex-vivo expanded human hematopoietic cells: Cord blood purified CD34^+ cells either fresh or following 2 or 4 weeks of ex-vivo culture (plus or minus TEPA) were injected into NOD/SCID mice essentially as described in (56). After 4 weeks, the mice were sacrificed and their femora and tibias were excised and the bone marrow flushed with a syringe fitted with a 25 gauge needle. A single cell suspension was prepared, the cells were washed and an aliquot counted with Trypan blue. In order to quantitate engrafted cells of human origin, cells were stained with FITC-conjugated anti CD45 antibodies and PE-conjugated either anti CD34, CD19 or CD33 antibodies. Anti CD45 antibodies recognize human, but not mouse, cells, and thus, indicates the human origin of the cells. The proliferation and differentiation potential of the engrafted cells was assayed by cloning bone marrow cells in semi-solid medium under conditions that allow specifically growth of human derived colonies essentially as described in (56).

Turning to `NCCNCCNCCNCCN` [TEPA, tetraethylenepentamine], the “maintaining the undifferentiative phenotype of embryonal stem cells” value in the data set with embryonal stem cells is reported as “can replace LIF”. Besides, in the data set on Hepatocytes, the “state of hepatocytes cultures” value was “contained many dividing and undifferentiated cells”. The “Engraftment Colonies” value in the data set on NOD/SCID mice (CB 2 10% FCS (first listed)) is recorded as 330 per 2 × 10^5 SCID BM cells; in the data set on NOD/SCID mice (CB 3 10% FCS), 100 per 2 × 10^5 SCID BM cells; with NOD/SCID mice (CB 6 1% FCS), 350 per 2 × 10^5 SCID BM cells; with NOD/SCID mice (CB 6 10% FCS), 420 per 2 × 10^5 SCID BM cells. Also, the “cord blood samples that succeeded to engraft the animals” value in the data set with NOD/SCID mice (of 6 samples expanded ex-vivo, without TEPA 2 out of 6) came out at 6.

These data come from patent US20020159981A1, “Methods of controlling proliferation and differentiation of stem and progenitor cells” (Gamida-Cell Ltd., priority 1999, published 2002).
